# In ChEMBL document CHEMBL1201862, “PubChem BioAssay data set” (2004):
# The source made the active and inactive calls.
# Assays:
# [1] = molecular target: Peroxisome proliferator-activated receptor gamma/Nuclear receptor coactivator 2 (Homo sapiens, UniProt P37231); assay: TR-FRET dose response biochemical High Throughput Screening assay for agonists of the steroid receptor coactivator 2 (SRC-2) recruitment by the peroxisome proliferator-activated receptor gamma (PPAR gamma): non-selective agonists. [Related pubchem assays: 1297, 1032 ]; type: functional
# [2] = molecular target: Peroxisome proliferator-activated receptor gamma/Nuclear receptor coactivator 3 (Homo sapiens, UniProt P37231); assay: TR-FRET dose response biochemical High Throughput Screening assay for agonists of the steroid receptor coactivator 3 (SRC-3) recruitment by the peroxisome proliferator-activated receptor gamma (PPAR gamma): non-selective agonists. [Related pubchem assays: 1301 (Confirmation screen.), 1048 (Primary screen.)]; type: functional
# [3] = molecular target: T1, Endoribonuclease toxin MazF (Escherichia coli K-12, UniProt P0AE70); assay: fluorescent RNA oligo signal without MazF, dose response, counter-screen for MazEF activator project, biochemical, fluorescence, single-stranded RNase substrate (AID 588502); type: functional
# T1 sequence (P0AE70 whole entry): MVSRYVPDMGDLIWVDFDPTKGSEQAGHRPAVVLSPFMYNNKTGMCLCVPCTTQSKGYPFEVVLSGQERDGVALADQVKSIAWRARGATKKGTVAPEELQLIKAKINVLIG
# [4] = molecular target: Peroxisome proliferator-activated receptor gamma/Nuclear receptor coactivator 1 (Homo sapiens, UniProt P37231); assay: TR-FRET dose response biochemical High Throughput Screening assay for agonists of the steroid receptor coactivator 1 (SRC-1) recruitment by the peroxisome proliferator-activated receptor gamma (PPAR gamma): non-selective agonists. [Related pubchem assays (depositor defined):AID1300, AID1808, AID504735, AID631]; type: protein assay
# [5] = Luminescence Cell-Based Dose Confirmation HTS to Identify Inhibitors of Platelet Dense Granule Release. [Related pubchem assays: 1663 (Primary HTS), 1678 (Summary of Project)]; type: functional
# [6] = molecular target: T1, Endoribonuclease toxin MazF; assay: MazF toxin RNase activators, dose response, biochemical, fluorescence, single-stranded RNA substrate, uHTS hits (AID 588481); type: functional
# [7] = molecular target: T2, RNA-binding protein pos-1 (Caenorhabditis elegans, UniProt G5EF15); assay: inhibitors of POS-1/mex-3 RNA binding, dose response, biochemical, fluorescence polarization (AID 1964);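 also: purified POS-1 fused to maltose binding protein made in E. coli; potency of compounds blocking POS-1 binding to fluorescent RNA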
# T2 sequence (G5EF15 whole entry): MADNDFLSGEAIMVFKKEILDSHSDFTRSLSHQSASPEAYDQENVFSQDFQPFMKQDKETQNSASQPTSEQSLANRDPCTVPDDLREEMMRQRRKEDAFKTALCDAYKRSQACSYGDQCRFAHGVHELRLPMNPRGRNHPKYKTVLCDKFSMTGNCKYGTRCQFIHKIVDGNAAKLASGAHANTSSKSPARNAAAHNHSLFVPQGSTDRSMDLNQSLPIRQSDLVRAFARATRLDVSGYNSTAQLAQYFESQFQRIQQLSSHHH
# [8] = molecular target: T3, Zinc finger protein mex-5 (Caenorhabditis elegans, UniProt Q9XUB2); assay: MEX-5/TCR-2 RNA interaction inhibitors, dose response, biochemical, C. elegans, fluorescence polarization (AID 1960)
# T3 sequence (Q9XUB2 whole entry): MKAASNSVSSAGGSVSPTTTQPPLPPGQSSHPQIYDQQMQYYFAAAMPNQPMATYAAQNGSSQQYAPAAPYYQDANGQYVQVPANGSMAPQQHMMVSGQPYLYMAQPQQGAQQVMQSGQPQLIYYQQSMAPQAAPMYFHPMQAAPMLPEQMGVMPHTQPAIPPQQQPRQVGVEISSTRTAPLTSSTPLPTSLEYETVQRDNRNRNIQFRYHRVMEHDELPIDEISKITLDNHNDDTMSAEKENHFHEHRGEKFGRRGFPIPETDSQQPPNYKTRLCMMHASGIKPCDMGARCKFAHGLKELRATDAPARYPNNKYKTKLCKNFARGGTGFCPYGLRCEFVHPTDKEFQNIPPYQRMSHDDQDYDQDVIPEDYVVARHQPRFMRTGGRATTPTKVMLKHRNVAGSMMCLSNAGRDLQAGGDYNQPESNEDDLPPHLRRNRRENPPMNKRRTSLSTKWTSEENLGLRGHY
# [9] = molecular target: Luciferin 4-monooxygenase (Photinus pyralis, UniProt P08659); assay: firefly luciferase enzyme inhibitors, dose response, biochemical, luminescence (AID 1891)
# Luciferin 4-monooxygenase, sequence (P08659 whole entry): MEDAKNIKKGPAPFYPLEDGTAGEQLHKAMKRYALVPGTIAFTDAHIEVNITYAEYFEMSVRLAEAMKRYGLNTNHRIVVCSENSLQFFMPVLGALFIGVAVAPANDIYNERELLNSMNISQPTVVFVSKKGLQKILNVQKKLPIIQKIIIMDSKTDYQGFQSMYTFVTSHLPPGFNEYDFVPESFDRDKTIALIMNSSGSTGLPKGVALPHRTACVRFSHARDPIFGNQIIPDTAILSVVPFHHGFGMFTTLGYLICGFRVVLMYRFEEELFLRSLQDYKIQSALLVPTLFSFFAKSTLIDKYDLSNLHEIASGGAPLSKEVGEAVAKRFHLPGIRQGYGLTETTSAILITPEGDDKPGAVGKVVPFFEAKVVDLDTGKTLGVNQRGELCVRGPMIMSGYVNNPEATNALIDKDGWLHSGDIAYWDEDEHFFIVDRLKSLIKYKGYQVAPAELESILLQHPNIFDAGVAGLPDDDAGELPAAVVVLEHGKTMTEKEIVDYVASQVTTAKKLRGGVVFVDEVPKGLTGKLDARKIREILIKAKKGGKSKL
# [10] = molecular target: Intestinal-type alkaline phosphatase (Mus musculus, UniProt P24822); assay: PubChem AID 488785; type: functional
# Intestinal-type alkaline phosphatase (Mus musculus, UniProt P24822), sequence (P24822 whole entry): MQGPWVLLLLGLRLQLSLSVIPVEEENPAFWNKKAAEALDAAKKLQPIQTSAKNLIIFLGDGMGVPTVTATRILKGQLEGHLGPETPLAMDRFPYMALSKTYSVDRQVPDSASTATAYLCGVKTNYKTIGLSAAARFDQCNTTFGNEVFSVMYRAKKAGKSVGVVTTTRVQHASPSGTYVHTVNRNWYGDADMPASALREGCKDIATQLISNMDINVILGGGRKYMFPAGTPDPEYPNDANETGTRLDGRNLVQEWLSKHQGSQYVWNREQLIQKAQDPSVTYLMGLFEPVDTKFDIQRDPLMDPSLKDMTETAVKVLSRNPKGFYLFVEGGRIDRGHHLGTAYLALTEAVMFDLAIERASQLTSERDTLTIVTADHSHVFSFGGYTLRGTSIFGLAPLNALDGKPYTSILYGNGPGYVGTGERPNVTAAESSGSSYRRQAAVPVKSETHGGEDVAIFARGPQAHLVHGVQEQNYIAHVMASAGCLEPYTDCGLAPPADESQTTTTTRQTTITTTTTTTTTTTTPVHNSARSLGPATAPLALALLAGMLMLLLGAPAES
# [11] = molecular target: Intestinal-type alkaline phosphatase (Homo sapiens, UniProt P09923); assay: inhibition of human intestinal alkaline phosphatase – biochemical, dose response (AID 488876); type: functional
# Intestinal-type alkaline phosphatase (Homo sapiens, UniProt P09923), sequence (P09923 whole entry): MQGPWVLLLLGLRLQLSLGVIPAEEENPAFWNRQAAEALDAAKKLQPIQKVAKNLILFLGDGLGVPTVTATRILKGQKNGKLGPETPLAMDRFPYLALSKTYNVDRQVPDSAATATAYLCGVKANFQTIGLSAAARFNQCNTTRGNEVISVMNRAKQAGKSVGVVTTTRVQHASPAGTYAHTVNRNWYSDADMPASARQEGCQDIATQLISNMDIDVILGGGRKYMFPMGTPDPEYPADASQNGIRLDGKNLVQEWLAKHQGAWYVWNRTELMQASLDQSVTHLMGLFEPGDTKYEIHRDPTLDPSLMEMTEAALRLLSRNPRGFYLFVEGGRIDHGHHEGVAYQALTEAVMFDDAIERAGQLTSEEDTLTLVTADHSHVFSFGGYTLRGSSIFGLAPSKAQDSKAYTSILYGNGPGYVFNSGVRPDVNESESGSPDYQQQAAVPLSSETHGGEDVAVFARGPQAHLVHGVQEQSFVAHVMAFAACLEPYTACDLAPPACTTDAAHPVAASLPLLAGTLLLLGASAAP
# [12] = molecular target: T4, Alkaline phosphatase, tissue-nonspecific isozyme (Homo sapiens, UniProt P05186); assay: TNAP enzyme inhibition by screening hits, dose response, selectivity assay for mouse IAP inhibitor project, biochemical, human TNAP, uHTS hits (AID 488906); type: functional
# T4 sequence (P05186 whole entry): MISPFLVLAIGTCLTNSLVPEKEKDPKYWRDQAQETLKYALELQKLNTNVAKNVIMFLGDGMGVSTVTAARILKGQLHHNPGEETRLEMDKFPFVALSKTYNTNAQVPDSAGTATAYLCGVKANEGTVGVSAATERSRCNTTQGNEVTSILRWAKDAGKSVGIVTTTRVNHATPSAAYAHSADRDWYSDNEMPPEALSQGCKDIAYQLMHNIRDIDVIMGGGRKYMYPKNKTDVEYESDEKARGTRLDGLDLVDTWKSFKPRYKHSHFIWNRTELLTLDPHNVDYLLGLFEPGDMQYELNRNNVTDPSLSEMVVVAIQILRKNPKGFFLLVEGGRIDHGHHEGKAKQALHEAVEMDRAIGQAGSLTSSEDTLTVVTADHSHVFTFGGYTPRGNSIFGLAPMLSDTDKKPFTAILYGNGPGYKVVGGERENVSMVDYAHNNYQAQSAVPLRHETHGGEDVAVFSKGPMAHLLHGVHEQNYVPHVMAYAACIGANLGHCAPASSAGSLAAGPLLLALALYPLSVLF
# Nonstructural protein 1 = Nonstructural protein 1 (Influenza A virus, UniProt Q194T2); type: functional, Influenza A virus (A/California/07/2009(H1N1))
# Mu-type opioid receptor = Mu-type opioid receptor (Homo sapiens, UniProt P35372); assay: Counterscreen for agonists of heterodimerization of the mu 1 (OPRM1) and delta 1 (OPRD1) opioid receptors: Luminescence-based cell-based high throughput dose response assay to identify agonists of OPRM1 homodimerization.; type: functional;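 also: U2OS cells expressing OPRM1 and beta-arrestin as split beta-galactosidase partners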
# [13] = molecular target: 5-hydroxytryptamine receptor 5A (Homo sapiens, UniProt P47898); assay: Counterscreen for agonists of OPRM1-OPRD1 heterodimerization: luminescence-based cell-based high throughput dose response assay to identify agonists of 5-hydroxytryptamine (serotonin) 5A receptor (HTR5A). [Related pubchem assays (depositor defined):AID504326, AID504355, AID504692, AID504904, AID504905]; type: functional
# [14] = molecular target: Delta-type opioid receptor (Homo sapiens, UniProt P41143); assay: Counterscreen for agonists of heterodimerization of the mu 1 (OPRM1) and delta 1 (OPRD1) opioid receptors: Luminescence-based cell-based high throughput dose response assay to identify agonists of OPRD1 homodimerization. [Related pubchem assays (depositor defined):AID504326, AID504355, AID504692, AID504904, AID504905]; type: functional
# [15] = molecular target: T5, Tyrosine-protein phosphatase non-receptor type 11 (Homo sapiens, UniProt Q06124); assay: SHP2 phosphatase inhibition, dose response, selectivity assay for STEP inhibitor project, biochemical (AID 602367); type: functional; conditions: read-out: IC50_Mean
# T5 sequence (Q06124 whole entry): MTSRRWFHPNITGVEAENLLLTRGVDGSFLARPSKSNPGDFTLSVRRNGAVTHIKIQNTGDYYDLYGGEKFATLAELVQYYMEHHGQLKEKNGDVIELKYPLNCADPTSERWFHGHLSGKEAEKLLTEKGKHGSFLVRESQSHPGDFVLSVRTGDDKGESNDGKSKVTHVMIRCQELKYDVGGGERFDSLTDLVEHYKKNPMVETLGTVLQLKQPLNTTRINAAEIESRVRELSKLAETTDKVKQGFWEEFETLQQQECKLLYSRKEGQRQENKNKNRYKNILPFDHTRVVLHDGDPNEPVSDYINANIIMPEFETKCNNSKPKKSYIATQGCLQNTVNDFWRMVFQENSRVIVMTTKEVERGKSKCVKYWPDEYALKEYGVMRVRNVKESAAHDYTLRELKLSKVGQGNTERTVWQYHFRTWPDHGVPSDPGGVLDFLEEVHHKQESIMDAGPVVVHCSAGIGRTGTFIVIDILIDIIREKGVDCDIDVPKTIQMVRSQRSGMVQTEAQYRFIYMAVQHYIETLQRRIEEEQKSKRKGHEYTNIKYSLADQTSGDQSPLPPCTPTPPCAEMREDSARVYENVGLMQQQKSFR
# [16] = molecular target: T6, Dual specificity protein phosphatase 3 (Homo sapiens, UniProt P51452); assay: VHR1 phosphatase inhibitors, primary screen, biochemical, absorbance, uHTS (AID 1654)
# T6 sequence (P51452 whole entry): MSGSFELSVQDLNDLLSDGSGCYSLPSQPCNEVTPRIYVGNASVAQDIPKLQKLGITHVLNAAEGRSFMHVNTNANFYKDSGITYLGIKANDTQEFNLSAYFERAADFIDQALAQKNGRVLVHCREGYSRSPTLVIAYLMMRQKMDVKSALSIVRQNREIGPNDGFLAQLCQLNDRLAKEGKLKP
# [17] = molecular target: T6, Dual specificity protein phosphatase 3; assay: VHR phosphatase inhibition, dose response, selectivity assay for STEP inhibitor project, biochemical (AID 602374); type: functional; conditions: read-out: IC50_Mean
# [18] = molecular target: T7, Tyrosine-protein phosphatase non-receptor type 5 (Homo sapiens, UniProt P54829); assay: STEP phosphatase inhibitors, confirmation, biochemical, fluorescence intensity, uHTS hits (AID 602372); type: functional; conditions: read-out: IC50_Mean
# T7 sequence (P54829 whole entry): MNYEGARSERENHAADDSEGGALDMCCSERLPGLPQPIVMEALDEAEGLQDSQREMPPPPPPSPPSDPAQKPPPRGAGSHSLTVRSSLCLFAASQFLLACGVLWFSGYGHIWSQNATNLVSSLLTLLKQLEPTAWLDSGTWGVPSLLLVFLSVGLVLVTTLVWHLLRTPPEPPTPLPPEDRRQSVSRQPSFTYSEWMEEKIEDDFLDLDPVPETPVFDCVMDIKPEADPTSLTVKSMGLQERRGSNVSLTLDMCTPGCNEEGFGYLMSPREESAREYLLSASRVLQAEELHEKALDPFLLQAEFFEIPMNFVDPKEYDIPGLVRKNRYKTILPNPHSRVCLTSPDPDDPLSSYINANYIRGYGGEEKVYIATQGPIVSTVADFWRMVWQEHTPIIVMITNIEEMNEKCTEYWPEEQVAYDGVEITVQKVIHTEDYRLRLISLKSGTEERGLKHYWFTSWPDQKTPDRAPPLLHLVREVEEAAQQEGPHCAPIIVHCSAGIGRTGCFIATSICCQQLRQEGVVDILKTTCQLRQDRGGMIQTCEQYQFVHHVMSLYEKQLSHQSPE
# [19] = molecular target: T6, Dual specificity protein phosphatase 3; assay: VHR1 phosphatase inhibitors, biochemical (AID 1878)
# [20] = molecular target: T8, Dual specificity protein phosphatase 6 (Rattus norvegicus, UniProt Q64346); assay: MKP-3 phosphatase inhibitors, primary screen, biochemical, rat enzyme, in vitro (AID 425)
# T8 sequence (Q64346 whole entry): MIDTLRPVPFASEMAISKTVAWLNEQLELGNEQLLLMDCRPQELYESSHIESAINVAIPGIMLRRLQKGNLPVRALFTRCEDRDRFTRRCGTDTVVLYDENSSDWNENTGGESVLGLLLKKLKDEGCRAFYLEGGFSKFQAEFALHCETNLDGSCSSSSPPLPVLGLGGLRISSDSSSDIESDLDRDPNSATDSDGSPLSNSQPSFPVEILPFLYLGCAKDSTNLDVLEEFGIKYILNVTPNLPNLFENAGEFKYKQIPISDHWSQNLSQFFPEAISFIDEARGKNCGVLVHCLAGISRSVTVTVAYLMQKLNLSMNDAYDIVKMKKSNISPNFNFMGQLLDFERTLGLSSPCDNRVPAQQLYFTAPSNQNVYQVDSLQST
# SUMO E1/E2 = SUMO E1/E2 (Homo sapiens, UniProt P63279+Q9UBE0+Q9UBT2); assay: SAR analysis of SUMOylation using HTRF in an in-Vitro dose response assay. [Related pubchem assays (depositor defined):AID2006, AID2011, AID2018, AID2069, AID2658]; type: functional
# [21] = molecular target: T9, Voltage-gated N-type calcium channel alpha-1B subunit/Amyloid beta A4 precursor protein-binding family A member 1 (Homo sapiens, UniProt Q00975+Q02410); assay: disruptors of Mint-PDZ/N-type channel peptide interaction – biochemical, HTRF, SAR follow-up (AID 2489); type: functional
# T9 sequence (Q00975 whole entry): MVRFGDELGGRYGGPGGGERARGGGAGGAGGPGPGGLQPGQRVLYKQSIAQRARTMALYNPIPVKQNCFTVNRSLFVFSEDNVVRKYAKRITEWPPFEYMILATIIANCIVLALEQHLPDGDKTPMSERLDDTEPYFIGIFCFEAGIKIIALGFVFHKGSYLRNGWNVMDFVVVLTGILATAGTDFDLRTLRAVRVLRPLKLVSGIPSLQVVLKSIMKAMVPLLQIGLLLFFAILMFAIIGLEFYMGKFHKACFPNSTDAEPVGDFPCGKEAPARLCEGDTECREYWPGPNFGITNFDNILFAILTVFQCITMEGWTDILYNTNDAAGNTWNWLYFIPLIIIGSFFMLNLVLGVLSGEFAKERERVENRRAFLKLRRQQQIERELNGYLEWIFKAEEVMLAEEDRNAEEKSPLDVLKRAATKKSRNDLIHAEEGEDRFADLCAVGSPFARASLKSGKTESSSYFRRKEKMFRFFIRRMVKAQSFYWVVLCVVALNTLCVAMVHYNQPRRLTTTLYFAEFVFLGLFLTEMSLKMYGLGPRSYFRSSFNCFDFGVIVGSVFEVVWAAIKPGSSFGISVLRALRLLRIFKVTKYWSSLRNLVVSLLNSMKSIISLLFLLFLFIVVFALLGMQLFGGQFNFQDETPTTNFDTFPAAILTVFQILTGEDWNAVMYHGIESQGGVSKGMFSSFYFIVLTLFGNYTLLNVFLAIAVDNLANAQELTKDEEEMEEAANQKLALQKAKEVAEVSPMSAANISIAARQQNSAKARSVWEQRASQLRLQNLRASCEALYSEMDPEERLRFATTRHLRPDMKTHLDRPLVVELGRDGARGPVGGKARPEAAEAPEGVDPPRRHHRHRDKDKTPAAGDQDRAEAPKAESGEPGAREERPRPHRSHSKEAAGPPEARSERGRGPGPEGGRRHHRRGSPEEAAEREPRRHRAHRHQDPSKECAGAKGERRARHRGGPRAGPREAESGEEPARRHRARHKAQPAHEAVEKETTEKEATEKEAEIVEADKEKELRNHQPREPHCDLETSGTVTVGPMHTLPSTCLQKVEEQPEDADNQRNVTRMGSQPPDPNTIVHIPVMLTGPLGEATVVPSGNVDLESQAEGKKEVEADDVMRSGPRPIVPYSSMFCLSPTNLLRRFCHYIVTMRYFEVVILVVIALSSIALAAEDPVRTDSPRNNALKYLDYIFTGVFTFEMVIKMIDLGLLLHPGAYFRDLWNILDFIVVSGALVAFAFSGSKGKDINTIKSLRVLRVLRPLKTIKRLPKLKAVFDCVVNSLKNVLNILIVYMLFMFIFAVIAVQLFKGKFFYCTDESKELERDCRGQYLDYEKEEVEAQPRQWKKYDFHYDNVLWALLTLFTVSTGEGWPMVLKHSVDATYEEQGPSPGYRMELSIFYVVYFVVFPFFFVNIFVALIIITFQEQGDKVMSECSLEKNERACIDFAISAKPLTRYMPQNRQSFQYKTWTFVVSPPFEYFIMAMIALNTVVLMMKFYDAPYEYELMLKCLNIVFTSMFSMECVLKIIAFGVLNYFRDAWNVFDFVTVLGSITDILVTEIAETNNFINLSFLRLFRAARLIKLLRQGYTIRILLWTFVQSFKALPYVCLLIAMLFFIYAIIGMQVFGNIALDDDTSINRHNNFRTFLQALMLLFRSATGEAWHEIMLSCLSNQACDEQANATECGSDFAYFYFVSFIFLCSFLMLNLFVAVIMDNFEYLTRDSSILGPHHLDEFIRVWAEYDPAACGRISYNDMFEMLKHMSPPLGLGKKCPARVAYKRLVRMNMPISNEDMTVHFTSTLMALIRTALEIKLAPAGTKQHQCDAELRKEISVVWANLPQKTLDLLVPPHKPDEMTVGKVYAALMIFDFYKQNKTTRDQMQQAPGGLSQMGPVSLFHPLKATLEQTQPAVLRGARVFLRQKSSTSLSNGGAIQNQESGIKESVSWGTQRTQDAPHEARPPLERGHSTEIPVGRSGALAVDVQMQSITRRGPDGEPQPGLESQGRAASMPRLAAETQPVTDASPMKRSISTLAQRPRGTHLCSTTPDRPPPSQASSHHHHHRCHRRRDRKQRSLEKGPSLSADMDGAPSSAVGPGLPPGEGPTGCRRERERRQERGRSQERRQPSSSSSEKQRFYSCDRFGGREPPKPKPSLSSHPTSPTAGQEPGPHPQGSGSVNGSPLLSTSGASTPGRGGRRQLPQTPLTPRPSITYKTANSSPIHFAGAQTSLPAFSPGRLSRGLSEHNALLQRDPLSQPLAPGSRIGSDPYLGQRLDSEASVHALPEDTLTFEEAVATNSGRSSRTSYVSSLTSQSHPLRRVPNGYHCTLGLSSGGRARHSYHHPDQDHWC
# T9 sequence (Q02410 whole entry): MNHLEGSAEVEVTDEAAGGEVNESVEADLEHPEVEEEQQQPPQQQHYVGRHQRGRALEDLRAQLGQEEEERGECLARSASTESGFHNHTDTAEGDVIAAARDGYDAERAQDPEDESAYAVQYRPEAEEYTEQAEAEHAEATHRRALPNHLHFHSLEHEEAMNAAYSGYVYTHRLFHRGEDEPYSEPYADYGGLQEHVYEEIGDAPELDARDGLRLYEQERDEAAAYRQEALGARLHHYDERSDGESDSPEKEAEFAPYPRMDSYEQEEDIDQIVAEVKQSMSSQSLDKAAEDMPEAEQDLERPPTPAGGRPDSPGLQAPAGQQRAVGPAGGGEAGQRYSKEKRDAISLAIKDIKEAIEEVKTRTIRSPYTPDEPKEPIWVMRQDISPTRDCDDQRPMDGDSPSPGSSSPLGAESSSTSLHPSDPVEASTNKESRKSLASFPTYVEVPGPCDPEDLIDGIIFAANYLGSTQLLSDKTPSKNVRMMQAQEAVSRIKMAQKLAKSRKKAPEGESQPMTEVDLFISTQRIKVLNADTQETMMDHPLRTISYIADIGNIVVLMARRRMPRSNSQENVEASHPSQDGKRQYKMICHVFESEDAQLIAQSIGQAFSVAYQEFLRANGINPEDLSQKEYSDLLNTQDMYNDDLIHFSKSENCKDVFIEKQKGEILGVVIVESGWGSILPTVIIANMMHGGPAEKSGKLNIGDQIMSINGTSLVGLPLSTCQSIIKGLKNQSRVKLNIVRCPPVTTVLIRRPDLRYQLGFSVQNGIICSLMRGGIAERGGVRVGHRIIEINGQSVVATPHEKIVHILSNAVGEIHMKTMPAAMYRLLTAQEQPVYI
# [22] = molecular target: T9, Voltage-gated N-type calcium channel alpha-1B subunit/Amyloid beta A4 precursor protein-binding family A member 1; assay: disruptors of Mint-PDZ/N-type channel peptide interaction – biochemical, HTRF, set 2, SAR follow-up (AID 434980); type: functional
structure (smiles),measurement,setting,value
Cc1nnc(N2C(=O)C(O)=C(C(=O)c3ccco3)C2c2ccc(C(C)(C)C)cc2)s1 (stereo unspecified),EC50,[1],28.3 µM (not active)
same,EC50,[2],> 79.4 µM (not active)
same,EC50,[3],19.7 µM (active)
same,EC50,[4],> 2.94 µM (inactive)
same,EC50,[5],> 112 µM (not active)
same,EC50,[6],> 99 µM (inactive)
same,EC50,[7],24.9 µM (active)
same,EC50,[8],7.86 µM (active)
same,EC50,[9],> 112 µM (not active)
Cc1cc(C)cc(NC(=S)NC2CC3CCCC(C2)N3Cc2cccs2)c1 (stereo unspecified),IC50,[10],2.17 µM (active)
same,IC50,[11],4.06 µM (active)
same,IC50,[12],12.9 µM (active)
same,IC50,Nonstructural protein 1,> 100 µM (active)
CC(CC(=O)N(CCC1=CCCCC1)c1c(N)n(Cc2ccccc2)c(=O)[nH]c1=O)c1ccccc1 (stereo unspecified),EC50,Mu-type opioid receptor,> 92.5 µM (inactive)
same,EC50,[13],> 92.5 µM (inactive)
same,EC50,[14],> 92.5 µM (inactive)
NC(=O)C1(N2CCCCC2)CCN(C(=S)Nc2ccc(S(N)(=O)=O)cc2)CC1,IC50,[15],2 µM (active)
same,IC50,[16],1.86 µM (active)
same,IC50,[17],0.811 µM (active)
same,IC50,[18],11.6 µM (active)
same,IC50,[19],3.38 µM (active)
same,IC50,[20],> 158 µM (not active)
COc1ccccc1CCNC(=O)COC(=O)c1cc(-c2ccco2)nc2ccccc12,IC50,SUMO E1/E2,25.3 µM (active)
same,IC50,[21],28.5 µM (active)
same,IC50,[22],17.4 µM (active)
COc1cccc(NC(=O)CN(C)S(=O)(=O)c2ccc3nc(O)oc3c2)c1,IC50,[10],4.03 µM (active)
same,IC50,[11],> 100 µM (inactive)
same,IC50,[12],> 100 µM (inactive)
COc1ccc(CNC(=O)c2cc(-c3ccco3)nc3ccccc23)cc1,IC50,SUMO E1/E2,2.61 µM (active)
same,IC50,[21],> 56.8 µM (inactive)
same,IC50,[22],20.3 µM (active)
